System: human Peripheral Blood Mononuclear Cell (PMBC)
Assay: PBMC assay: cytokine (IFN-α) stimulation at 24 hours
Assay type: cell-based
Settings: Homo sapiens, PBMC, 24 h, IFN-α in supernatant (Luminex), three fold above background, read-out: MEC = minimum concentration for induction of IFN-alpha = 3-fold over background
Experimental: Assays were conducted to determine cytokine stimulation at 24 hours from human Peripheral Blood Mononuclear Cell (PMBC) using the compounds of the present invention. The assays were run in duplicate, with 8-point, half-log dilution curves. The compounds of the present invention were diluted from 10 mM DMSO solution. Cell supernatants are assayed directly for IFNα and 1:10 dilution for TNFα. The assays were performed in a similar fashion as described in Bioorg. Med. Chem. Lett. 16, 4559, (2006). Specifically, cryo-preserved PBMCs were thawed and seeded 96 well plates with 750,000 cells/well in 190 μL/well cell media. The PBMCs were then incubated for 1 hour at 37° C. at 5% CO2. Then, the compounds of the present invention were added in 10 μL cell media at 8 point, half-log dilution titration. The plates were incubated at 37° C. and 5% CO2 for 24 hours and then spinned at 1200 rpm for 10 min, which was followed by collecting supernatant and storing the same at −80° C. Cytokine secretion was assayed with Luminex® (brand of Multiplexing bead-based platform, Luminx® Corporation Austin Tex. USA) and Upstate Biosciences® (Upstate Biosciences®, Charlottesville, Va., USA) multi-plex kits, using a Luminex® analysis instrument. IFN MEC value for a compound was the minimum concentration at which IFN-α production stimulated by the compound reached three fold above background, as determined using the assay method above.

SMILES | minimal effective concentration [µM]
COCCOc1nc(N)c2[nH]c(=O)n(Cc3cc(-c4cccc(CN5CCCC5)c4)ccc3Cl)c2n1 [AA] | 0.1 to 1
COCCOc1nc(N)c2[nH]c(=O)n(Cc3cc(-c4ccc(CN5CCCC5)cc4)ccc3Cl)c2n1 [AB] | 0.1 to 1
COCCOc1nc(N)c2[nH]c(=O)n(Cc3ccc(-c4ccc(CN5CCCC5)cn4)cc3)c2n1 [AC] | 0.001
COCCOc1nc(N)c2[nH]c(=O)n(Cc3ccc(-c4ccc(CN5CCCC5)nc4)cc3)c2n1 [AD] | 0.001
CCN1CCc2ncc(-c3ccc(Cn4c(=O)[nH]c5c(N)nc(OCCOC)nc54)cc3)cc2C1 [AE] | 0.001
COCCOc1nc(N)c2[nH]c(=O)n(Cc3ccc(-c4ccc(CN5CCCC5)cc4)nc3)c2n1 [AF] | 0.001
COCCOc1nc(N)c2[nH]c(=O)n(Cc3ccc(-c4cccc(CN5CCCC5)c4)nc3)c2n1 [AG] | 0.001
COCCOc1nc(N)c2[nH]c(=O)n(Cc3ccc(-c4ccc(CN5CCCC5)cc4)cc3Cl)c2n1 [AH] | 0.001
COCCOc1nc(N)c2[nH]c(=O)n(Cc3ccc(-c4ccc(CN5CCCC5)cc4)c(Cl)c3)c2n1 [AI] | 0.001
COCCOc1nc(N)c2[nH]c(=O)n(Cc3ccc(-c4ccc(CN5CCCC5)cc4)cc3F)c2n1 [AJ] | 0.001
COCCOc1nc(N)c2[nH]c(=O)n(Cc3ccc(-c4ccc(CN5CCCC5)cc4)cc3C#N)c2n1 [AK] | 0.001
COCCOc1nc(N)c2[nH]c(=O)n(Cc3ccc(-c4ccc(CN5CCCC5)cc4)c(F)c3)c2n1 [AL] | 0.001
COCCOc1nc(N)c2[nH]c(=O)n(Cc3ccc(-c4cc(CN5CCCC5)cc(C(F)(F)F)c4)cc3)c2n1 [AM] | 0.01 to 0.099
COCCOc1nc(N)c2[nH]c(=O)n(Cc3ccc(-c4ccc(CN5CCCC5)cc4)c(C(F)(F)F)c3)c2n1 [AN] | 0.001
COCCOc1nc(N)c2[nH]c(=O)n(Cc3ccc(-c4cccc(CN5CCCC5)c4)c(C(F)(F)F)c3)c2n1 [AO] | 0.001
COCCOc1nc(N)c2[nH]c(=O)n(Cc3ccc(-c4ccc(CCCN5CCCC5)nc4)cc3)c2n1 [AP] | 0.001
Nc1nc(OCC2CCOCC2)nc2c1[nH]c(=O)n2Cc1ccc(-c2cccc(CN3CCCC3)c2)cc1 [AQ] | 0.001
Nc1nc(OCC2CCOCC2)nc2c1[nH]c(=O)n2Cc1ccc(-c2ccc(CN3CCCC3)cc2)cc1 [AR] | 0.001
Nc1nc(OCC2CCOCC2)nc2c1[nH]c(=O)n2Cc1ccc(-c2ccc(CN3CCCC3)cc2)c(C(F)(F)F)c1 [AS] | 0.001

SMILES | minimal effective concentration [µM]
Nc1nc(OCC2CCOCC2)nc2c1[nH]c(=O)n2Cc1ccc(-c2cccc(CN3CCCC3)c2)c(C(F)(F)F)c1 [AT] | 0.001
Nc1nc(OCC2CCOCC2)nc2c1[nH]c(=O)n2Cc1ccc(-c2ccc(CN3CCCC3)nc2)cc1 [AU] | 0.001
Nc1nc(OCC2CCOCC2)nc2c1[nH]c(=O)n2Cc1ccc(-c2ccc(CN3CCCC3)cn2)cc1 [AV] | 0.001
COCCOc1nc(N)c2[nH]c(=O)n(Cc3ccc(-c4ccc(CN5CCCC5)cc4)cc3)c2c1Cl [AY] | 0.01 to 0.099
Nc1nc(OCC2CCOCC2)cc2c1[nH]c(=O)n2Cc1ccc(-c2ccc(CN3CCCC3)cc2)cc1 [AZ] | 0.001
CCCCOc1nc(N)c2[nH]c(=O)n(Cc3cccc(-c4ccccc4CN4CCCC4)c3)c2n1 [A] | 0.1 to 1
Nc1nc(OCC2CCOCC2)cc2c1[nH]c(=O)n2Cc1ccc(-c2ccc(CN3CCCC3)nc2)cc1 [BA] | 0.001
Nc1nc(OCC2CCOCC2)cc2c1[nH]c(=O)n2Cc1ccc(-c2csc(CN3CCCC3)n2)cc1 [BB] | 0.001 to 0.009
CCCCOc1cc2c([nH]c(=O)n2Cc2ccc(-c3ccc(CN4CCCC4)cc3)cc2)c(N)n1 [BC] | 0.001
Nc1nc(OCC2CCOCC2)cc2c1[nH]c(=O)n2Cc1ccc(-c2cccc(CN3CCCC3)c2)nc1 [BD] | 0.001
Nc1nc(OCC2CCOCC2)cc2c1[nH]c(=O)n2Cc1ccc(-c2ccc(CN3CCCC3)cc2)nc1 [BE] | 0.001
CCCCOc1cc2c([nH]c(=O)n2Cc2ccc(-c3cccc(CN4CCCC4)c3)nc2)c(N)n1 [BF] | 0.001
CCCCOc1cc2c([nH]c(=O)n2Cc2ccc(-c3ccc(CN4CCCC4)cc3)nc2)c(N)n1 [BG] | 0.001
CCCCOc1nc(N)c2[nH]c(=O)n(Cc3cccc(-c4cccc(CN5CCCC5)c4)c3)c2n1 [B] | 0.01 to 0.099
CCCCOc1nc(N)c2[nH]c(=O)n(Cc3cccc(-c4ccc(CN5CCCC5)cc4)c3)c2n1 [C] | 0.001 to 0.009
CCCCOc1nc(N)c2[nH]c(=O)n(Cc3ccc(-c4ccccc4CN4CCCC4)cc3)c2n1 [D] | 0.001
CCCCOc1nc(N)c2[nH]c(=O)n(Cc3ccc(-c4cccc(CN5CCCC5)c4)cc3)c2n1 [E] | 0.001
CCCCOc1nc(N)c2[nH]c(=O)n(Cc3cnc(-c4ccc(CN5CCCC5)cc4)s3)c2n1 [Example M] | 0.001
CCCCOc1nc(N)c2[nH]c(=O)n(Cc3ccc(-c4ccc(CN5CCCC5)cc4)cc3)c2n1 [F] | 0.001

SMILES | minimal effective concentration [µM]
CCCCOc1nc(N)c2[nH]c(=O)n(Cc3ccc(-c4cccc(CN5CCCC5)c4)nc3)c2n1 [G] | 0.001
CCCCOc1nc(N)c2[nH]c(=O)n(Cc3ccc(-c4ccc(CN5CCCC5)cc4)nc3)c2n1 [H] | 0.001
CCCCOc1nc(N)c2[nH]c(=O)n(Cc3ccnc(-c4ccc(CN5CCCC5)cc4)c3)c2n1 [I] | 0.001
CCCCOc1nc(N)c2[nH]c(=O)n(Cc3ccc(-c4ccc(CN5CCCC5)cc4)cn3)c2n1 [J] | 0.001
CCCCOc1nc(N)c2[nH]c(=O)n(Cc3ccc(-c4cccc(CN5CCCC5)c4)cn3)c2n1 [K] | 0.001
CCCCOc1nc(N)c2[nH]c(=O)n(Cc3cnc(-c4cccc(CN5CCCC5)c4)s3)c2n1 [L] | 0.001
CCCCOc1nc(N)c2[nH]c(=O)n(Cc3ccc(-c4ccc(CN5CCCC5)nc4)cc3)c2n1 [N] | 0.001
CCCCOc1nc(N)c2[nH]c(=O)n(Cc3ccc(-c4ccc(CN5CCCC5)cn4)cc3)c2n1 [O] | 0.001
CCCCOc1nc(N)c2[nH]c(=O)n(Cc3ccc(-c4nc(CN5CCCC5)cs4)cc3)c2n1 [P] | 0.001
CCCCOc1nc(N)c2[nH]c(=O)n(Cc3ccc(-c4ncc(CN5CCCC5)s4)cc3)c2n1 [Q] | 0.001
CCCCOc1nc(N)c2[nH]c(=O)n(Cc3ccc(-c4cc(CN5CCCC5)ccc4OC)cc3)c2n1 [R] | 0.001
CCCCOc1nc(N)c2[nH]c(=O)n(Cc3ccc(-c4ccc(CN5CCCC5)c(F)c4)cc3)c2n1 [S] | 0.001
COCCOc1nc(N)c2[nH]c(=O)n(Cc3ccc(-c4cccc(CN5CCCC5)c4)cc3)c2n1 [T] | 0.001
COCCOc1nc(N)c2[nH]c(=O)n(Cc3ccc(-c4ccc(CN5CCCC5)cc4)cc3)c2n1 [U] | 0.001
COCCOc1nc(N)c2[nH]c(=O)n(Cc3ccc(-c4ccc(C(C)N5CCCC5)cc4)cc3)c2n1 (centres unmarked) [V] | 0.001
COCCOc1nc(N)c2[nH]c(=O)n(Cc3ccc(-c4cccc(CN5CCCCC5)c4)cc3)c2n1 [W] | 0.001
COCCOc1nc(N)c2[nH]c(=O)n(Cc3ccc(-c4ccc(CN5CCOCC5)cc4)cc3)c2n1 [X] | 0.001
COCCOc1nc(N)c2[nH]c(=O)n(Cc3ccc(-c4cccc(CN5CCOCC5)c4)cc3)c2n1 [Y] | 0.001 to 0.009
COCCOc1nc(N)c2[nH]c(=O)n(Cc3ccc(-c4cccc(CN5CCN(C)CC5)c4)cc3)c2n1 [Z] | 0.001

Same assay, conditions: IFN-α in supernatant (Luminex), three fold above background

SMILES | MEC = minimum concentration for induction of IFN-alpha = 3-fold over background
COCCOc1nc(N)c2[nH]c(=O)n(Cc3ccc(-c4ccc(CN5CCCC5)cc4)cc3)c2n1 [AX] | b (b: 1 nM-9 nM)

Same assay, conditions: IFN-α in supernatant (Luminex), three fold above background, read-out: MEC = minimum concentration for induction of IFN-alpha = 3-fold over background

SMILES | minimal effective concentration [µM]
COCCOc1cc2c([nH]c(=O)n2Cc2ccc(-c3cccc(CN4CCCC4)c3)cc2)c(N)n1 [AW] | 0.001 to 0.009

Source: patent publication US8507507B2, “Modulators of toll-like receptors” (Gilead Sciences, Inc., priority 2009, dated 2013)
